Here are results for 17 compounds from paper PMC11003479, “Inhibition of pathogenic bacterial carbonic anhydrases by monothiocarbamates” (Journal of Enzyme Inhibition and Medicinal Chemistry, 2023).

For one test, the target named is T1, α-NgCA (Neisseria gonorrhoeae, UniProt Q50940).
T1 construct: gene cah
T1 sequence (Q50940 27-252): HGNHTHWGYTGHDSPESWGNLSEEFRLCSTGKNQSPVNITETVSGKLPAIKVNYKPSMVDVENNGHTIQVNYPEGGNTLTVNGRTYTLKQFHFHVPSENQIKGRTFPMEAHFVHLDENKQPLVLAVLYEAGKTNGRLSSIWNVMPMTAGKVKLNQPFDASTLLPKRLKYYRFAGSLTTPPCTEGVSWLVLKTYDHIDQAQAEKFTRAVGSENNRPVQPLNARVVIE
Kind of test: stopped-flow CO2 hydrase assay. The test is classed as biochemical.
Details: not given
By Ki is commonly meant a dissociation constant, usually derived from enzyme kinetics or from competition with a known ligand. As to `O=C(S)N1CCN(c2cccc(Cl)c2)CC1` [compound 15, MTC 15], the inhibitory constant (Ki) was 0.367 µM.

Compound `O=C(CN1CCN(C(=O)S)CC1)NC1CCCCC1` [compound 5, MTC 5] displayed a Ki of 0.395 µM.

In the case of `O=C(S)N1CCN(c2ccc(C(F)(F)F)cc2)CC1` [compound 13, MTC 13], the affinity, expressed as Ki, was 0.394 µM.

`O=C(S)N1CCN(c2ccc(F)cc2)CC1` [compound 14, MTC 14]: the affinity, expressed as Ki, was 0.417 µM.

As to `COc1ccc(CCNC(=O)S)cc1OC` [compound 12, MTC 12], the affinity corresponds to a Ki of 0.512 µM.

A further test addresses T2, α-EfCA (Enterococcus faecium, UniProt Q3XYE8).
T2 construct: gene HMPREF0351_11360
T2 sequence (Q3XYE8 1-234): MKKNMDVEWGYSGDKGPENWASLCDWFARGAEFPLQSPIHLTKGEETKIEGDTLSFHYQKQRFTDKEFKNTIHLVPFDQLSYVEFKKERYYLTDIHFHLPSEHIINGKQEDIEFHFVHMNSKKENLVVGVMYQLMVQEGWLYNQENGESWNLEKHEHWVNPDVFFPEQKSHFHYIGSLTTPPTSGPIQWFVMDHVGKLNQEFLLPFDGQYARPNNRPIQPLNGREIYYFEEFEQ
Kind of test: stopped-flow CO2 hydrase assay.
Details: not given
In kind it is biochemical.
In turn, `O=C(S)N1CCN(c2cccc(Cl)c2)CC1` [compound 15, MTC 15] displayed an inhibitory constant (Ki) of 0.3 µM.

In turn, `O=C(CN1CCN(C(=O)S)CC1)NC1CCCCC1` [compound 5, MTC 5] had an inhibition constant Ki of 0.29 µM.

Take `O=C(S)N1CCN(c2ccc(C(F)(F)F)cc2)CC1` [compound 13, MTC 13]: the inhibitory constant (Ki) came to 0.477 µM.

Compound `O=C(S)NCCc1ccccc1` [compound 9, MTC 9] yielded an inhibitory constant (Ki) of 0.428 µM.

For `O=C(S)N1CCN(c2ccc(F)cc2)CC1` [compound 14, MTC 14], affinity was put at a Ki of 0.195 µM.

`COc1ccc(CCNC(=O)S)cc1OC` [compound 12, MTC 12] had a Ki of 0.357 µM.

The next test deals with γ-EfCA. Kind of test: stopped-flow CO2 hydrase assay. The test is classed as biochemical, Enterococcus faecium. Particulars: CO2 hydration, pH 8.3.
For the compound `O=C(S)N1CCN(c2cccc(Cl)c2)CC1` [compound 15, MTC 15], the Ki turned out to be 0.214 µM.

On to `O=C(CN1CCN(C(=O)S)CC1)NC1CCCCC1` [compound 5, MTC 5], for which the Ki came out at 0.417 µM.

The compound `CCOC(=O)CN(C)C(=O)S` [compound 7, MTC 7] displayed an inhibition constant (Ki) of 0.279 µM.

`O=C(S)N1CCN(c2ccc(C(F)(F)F)cc2)CC1` [compound 13, MTC 13] returned a Ki of 0.334 µM.

For `O=C(S)N1CCN(c2ccc(F)cc2)CC1` [compound 14, MTC 14], affinity was put at a Ki of 0.149 µM.

On to `COc1ccc(CCNC(=O)S)cc1OC` [compound 12, MTC 12], for which the affinity corresponds to a Ki of 0.358 µM.

A further test deals with T1, α-NgCA. Kind of test: biochemical. Further details: stopped-flow CO2 hydration assay of recombinant carbonic anhydrases, pH 7.4 (alpha) or 8.3 (gamma), KI.
Details: not given
As for the experimental part:
(§1) The experiments were performed at the pH of 7.4 for the α-class enzymes, and the pH of 8.3 for the γ-CA, as reported earlier[15]^,[16]. The bacterial enzymes were recombinant proteins obtained as reported earlier by our group[15]^,[16].
`CCCCN(CC)C(=O)S` [compound 10]: the inhibition constant Ki was determined as 0.766 µM.

Regarding `CCCN(CCC)C(=O)S` [compound 4], the Ki was 0.799 µM.

With `CCCCN(CCCC)C(=O)S` [compound 3], the Ki came out at 0.825 µM.

On to `O=C(S)N1CCOCC1` [compound 1], for which the inhibition constant (Ki) was found to be 0.761 µM.

Consider `CC(C)CN(CC(C)C)C(=O)S` [compound 2], for which the Ki is 0.89 µM.

For the compound `CN1CCN(C(=O)S)CC1` [compound 6], the Ki amounted to 0.729 µM.

Turning to `CN(Cc1ccccc1)C(=O)S` [compound 8], the inhibition constant (Ki) was 0.843 µM.

On to `O=C(S)NCCc1ccccc1` [compound 9], for which the Ki amounted to 0.648 µM.

For the compound `O=C(S)N1CCN(C(=O)S)CC1` [compound 11], the Ki was determined as 0.63 µM.

For the compound `CCOC(=O)CN(C)C(=O)S` [compound 7], the inhibitory constant (Ki) came out at 0.919 µM.

The next test addresses T2, α-EfCA. Kind of test: biochemical.
Details: not given
Further details: stopped-flow CO2 hydration assay of recombinant carbonic anhydrases, pH 7.4 (alpha) or 8.3 (gamma), KI. As for the experimental part: as §1
Consider `CCCCN(CC)C(=O)S` [compound 10], for which the Ki came to 0.806 µM.

In the case of `CCCN(CCC)C(=O)S` [compound 4], the Ki was determined as 0.55 µM.

Take `CCCCN(CCCC)C(=O)S` [compound 3]: the inhibition constant Ki was 0.517 µM.

With `O=C(S)N1CCOCC1` [compound 1], the Ki amounted to 0.74 µM.

Turning to `CC(C)CN(CC(C)C)C(=O)S` [compound 2], the inhibition constant Ki was found to be 0.665 µM.

For the compound `CN1CCN(C(=O)S)CC1` [compound 6], the Ki came out at 0.959 µM.

Regarding `CN(Cc1ccccc1)C(=O)S` [compound 8], the Ki came to 0.686 µM.

Consider `O=C(S)N1CCN(C(=O)S)CC1` [compound 11], for which the Ki came out at 0.915 µM.

In the case of `CCOC(=O)CN(C)C(=O)S` [compound 7], the inhibition constant (Ki) worked out at 0.788 µM.
